*1 amine or outer side, *2 acyl side, *3 side chain or, on linkers, in order; H or OH if unused. Where a SMILES comes first, the peptide text is derived from it. Bridges are numbered along the chain shown (N, C = ends). [ ]: non-standard residue; d: D form. The star is where a group is joined. ξ: configuration not given here. X13 = O=C([C@H](Cc1ccc(-c2cc(F)cc(F)c2)cc1)N[*:1])[*:2]; Phe(3-CF3) = N[C@@H](Cc1cccc(C(F)(F)F)c1)C(=O)O; Phe(4-CF3) = N[C@@H](Cc1ccc(C(F)(F)F)cc1)C(=O)O; Phe(4-COOH) = N[C@@H](Cc1ccc(C(=O)O)cc1)C(=O)O; Bip = N[C@@H](Cc1ccc(-c2ccccc2)cc1)C(=O)O; NH(CH2)14COOH = O=C(O)CCCCCCCCCCCCCCN*; Phe(3-Me) = Cc1cccc(C[C@H](N)C(=O)O)c1; Abu(3S-NH2) = C[C@H](N)[C@H](N)C(=O)O; Gly(decyl) = CCCCCCCCCC[C@H](N)C(=O)O; NH(CH2)12COOH = O=C(O)CCCCCCCCCCCCN*; Val(3-OH) = CC(C)(O)[C@H](N)C(=O)O; dAla(cPr) = N[C@H](CC1CC1)C(=O)O; hArg = N=C(N)NCCCC[C@H](N)C(=O)O; NMeQ = CN[C@@H](CCC(N)=O)C(=O)O; Cha = N[C@@H](CC1CCCCC1)C(=O)O; Cit = NC(=O)NCCC[C@H](N)C(=O)O; Ile(3ξ) = CCC(C)[C@H](N)C(=O)O; Thr(3ξ) = CC(O)[C@H](N)C(=O)O; 12Ado = NCCCCCCCCCCCC(=O)O; hSer = N[C@@H](CCO)C(=O)O; Carboxymethyl = O=C(O)C*; NMeA = CN[C@@H](C)C(=O)O; Orn = NCCC[C@H](N)C(=O)O; Aun = NCCCCCCCCCCC(=O)O; Dab = NCC[C@H](N)C(=O)O; Dap = NC[C@H](N)C(=O)O; AEEA = NCCOCCOCC(=O)O

T1 sequence (Q15116 25-288): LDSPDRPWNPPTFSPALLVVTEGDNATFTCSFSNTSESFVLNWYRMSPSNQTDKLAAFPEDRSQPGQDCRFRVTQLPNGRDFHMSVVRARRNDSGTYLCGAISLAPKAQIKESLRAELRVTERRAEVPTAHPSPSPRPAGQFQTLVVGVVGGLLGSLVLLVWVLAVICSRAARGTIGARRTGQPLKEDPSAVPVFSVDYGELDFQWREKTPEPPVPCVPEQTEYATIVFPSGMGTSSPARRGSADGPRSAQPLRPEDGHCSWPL

One experiment has as its target T1, PD-1/PD-L1 interaction (PE-labeled human PD-L1-Ig binding to Jurkat cell line over-expressing human PD-1) (Homo sapiens, UniProt Q15116).
T1 construct: expressed in transfected cells; host or cells: Jurkat
The experiment is described as follows: Jurkat-PD-1 Cell Binding High-Content Screening Assay (CBA). The conditions noted are these: Jurkat-hPD-1 cells, PE-labeled PD-L1-Ig 20 nM final; read-out: Jurkat HPD1 PDL1 IC50. The method in brief:
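Jurkat cells overexpressing human PD-1 (8×10^3/well, DMEM + 10% FCS) preincubated with compound 2 h at 37 °C, then PE-labelled human PD-L1-Ig (20 nM final) for 1 h. Cells fixed in paraformaldehyde with Hoechst 33342; bound PD-L1 quantified by high-content imaging.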
Turning to `CC(C)C[C@H]1NC(=O)[C@H](C)N(C)C(=O)[C@H](Cc2ccc(OCC(=O)O)cc2)NC(=O)[C@H](Cc2ccc(-c3ccccc3)cc2)NC(=O)[C@H](Cc2ccc(OCC(=O)O)cc2)NC(=O)[C@H](Cc2c[nH]c3ccccc23)NC(=O)[C@H](CC(=O)O)NC(=O)[C@H](Cc2ccc(OCC(=O)O)cc2)NC(=O)[C@H]([C@@H](C)O)NC(=O)CSC[C@@H](C(=O)N[C@@H](CCCN)C(=O)NCCOCCOCC(=O)NCCCCCCCCCCC(=O)O)NC(=O)[C@H](CC(N)=O)NC(=O)[C@H](C(C)C)NC(=O)[C@H](CC2CCCCC2)NC(=O)[C@H](CCN)NC1=O` [Example 1397] ({CH2CO}-TY(Carboxymethyl)DWY(Carboxymethyl)[Bip]Y(Carboxymethyl)[NMeA][dL][Dab][Cha]VNC[Orn][AEEA][Aun]-OH; thioether N-14), the IC50 (as a rule, the concentration needed to halve the response being measured) came out at 123 nM.
Take `CC(=O)NCCCC[C@@H]1NC(=O)[C@H](C(C)C)NC(=O)[C@H](CC2CCCCC2)NC(=O)[C@H](CCN)NC(=O)[C@@H](CC(C)C)NC(=O)[C@H](C)N(C)C(=O)[C@H](CCO)NC(=O)[C@H](Cc2ccc(-c3ccccc3)cc2)NC(=O)[C@H](C(C)C)NC(=O)[C@H](Cc2cccc(C)c2)NC(=O)[C@H](CC(=O)O)NC(=O)[C@H](Cc2ccc(OCC(=O)O)cc2)NC(=O)[C@H](Cc2ccc(OCC(=O)O)cc2)NC(=O)CSC[C@@H](C(=O)N[C@@H](CCN)C(=O)NCCCCCCCCCCC(=O)O)NC1=O` [Example 2221] ({CH2CO}-Y(Carboxymethyl)Y(Carboxymethyl)D[Phe(3-Me)]V[Bip][hSer][NMeA][dL][Dab][Cha]VK(Ac)C[Dab][Aun]-OH; thioether N-14): the IC50 amounted to 11.6 nM.
Same read-out and setting: then `CC(C)C[C@H]1NC(=O)[C@H](C)N(C)C(=O)[C@H](CCCNC(N)=O)NC(=O)[C@H](Cc2ccc(-c3ccccc3)cc2)NC(=O)[C@H](Cc2ccc(C(=O)O)cc2)NC(=O)[C@H](Cc2cccc(C(F)(F)F)c2)NC(=O)[C@H](CC(=O)O)NC(=O)[C@H](Cc2ccc(OCC(=O)O)cc2)NC(=O)[C@H]([C@H](C)N)NC(=O)CSC[C@@H](C(=O)N[C@@H](CCN)C(=O)NCCCCCCCCCCCCC(=O)O)NC(=O)[C@H](CCC(=O)O)NC(=O)[C@H](C(C)C)NC(=O)[C@H](CC2CCCCC2)NC(=O)[C@H](CCN)NC1=O` [Example 1194] ({CH2CO}-[Abu(3S-NH2)]Y(Carboxymethyl)D[Phe(3-CF3)][Phe(4-COOH)][Bip][Cit][NMeA][dL][Dab][Cha]VEC[Dab]-{NH(CH2)12COOH}; thioether N-14), with 7.9 nM.
Same read-out and setting: then `CC(C)C[C@@H]1NC(=O)[C@H](Cc2c[nH]c3ccccc23)NC(=O)[C@H](CC(=O)O)NC(=O)[C@H](Cc2ccc(C(=O)O)cc2)NC(=O)[C@H](Cc2ccc(OCC(=O)O)cc2)NC(=O)CSC[C@@H](C(=O)N[C@@H](CCCN)C(=O)NCCOCCOCC(=O)NCCCCCCCCCCC(=O)O)NC(=O)[C@H](CO)NC(=O)[C@H](C(C)C)NC(=O)[C@H](CC2CCCCC2)NC(=O)[C@H](CCN)NC(=O)[C@@H](CC2CC2)NC(=O)[C@H](C)N(C)C(=O)[C@H](C(C)C)NC(=O)[C@H](Cc2ccc(-c3ccccc3)cc2)NC1=O` [Example 1248] ({CH2CO}-Y(Carboxymethyl)[Phe(4-COOH)]DWL[Bip]V[NMeA][dAla(cPr)][Dab][Cha]VSC[Orn][AEEA][Aun]-OH; thioether N-14), with 18 nM; and `CCC(C)[C@@H]1NC(=O)[C@H](Cc2ccc(-c3ccccc3)cc2)NC(=O)[C@H](C(C)C)NC(=O)[C@H](Cc2c[nH]c3ccccc23)NC(=O)[C@H](CC(=O)O)NC(=O)[C@H](Cc2ccc(O)cc2)NC(=O)[C@H](C(C)O)NC(=O)CSC[C@@H](C(=O)N[C@@H](CC(N)=O)C(=O)NCCOCCOCC(=O)NCCCCCCCCCCC(=O)O)NC(=O)[C@H](CO)NC(=O)[C@H](C(C)C)NC(=O)[C@H](CC(C)C)NC(=O)[C@H](CCN)NC(=O)[C@@H](CC(C)C)NC(=O)[C@H](C)N(C)C1=O` (stereo partly drawn) [Example 2050] ({CH2CO}-[Thr(3ξ)]YDWV[Bip][Ile(3ξ)][NMeA][dL][Dab]LVSCN[AEEA][Aun]-OH; thioether N-14), with 25.8 nM.
On the same count and under the same terms, then `Cc1cccc(C[C@@H]2NC(=O)[C@H](CC(=O)O)NC(=O)[C@H](Cc3ccc(OCC(=O)O)cc3)NC(=O)[C@H](CN)NC(=O)CSC[C@@H](C(=O)NCC(=O)N[C@@H](CC(=O)O)C(=O)NCCCCCCCCCCC(=O)O)NC(=O)[C@H](CO)NC(=O)[C@H](C(C)C)NC(=O)[C@H](CC(C)C)NC(=O)[C@H](CC(N)=O)NC(=O)[C@@H](CC(C)C)NC(=O)[C@H](C)N(C)C(=O)[C@H](C(C)C)NC(=O)[C@H](Cc3ccc(-c4ccccc4)cc3)NC(=O)[C@H](CC(C)C)NC2=O)c1` [Example 1061] ({CH2CO}-[Dap]Y(Carboxymethyl)D[Phe(3-Me)]L[Bip]V[NMeA][dL]NLVSCGD[Aun]-OH; thioether N-14), with 42.9 nM; and `CC(C)C[C@H]1NC(=O)[C@H](C)N(C)C(=O)[C@H](C(C)C)NC(=O)[C@H](Cc2ccc(-c3ccccc3)cc2)NC(=O)[C@H](C(C)C)NC(=O)[C@H](Cc2c[nH]c3ccccc23)NC(=O)[C@H](CC(=O)O)NC(=O)[C@H](Cc2ccc(OCC(=O)O)cc2)NC(=O)[C@H](CCCCNC(=N)N)NC(=O)CSC[C@@H](C(=O)N[C@@H](CCCCN)C(=O)NCCOCCOCC(=O)NCCCCCCCCCCC(=O)O)NC(=O)[C@H](CO)NC(=O)[C@H](C(C)C)NC(=O)[C@H](CC2CCCCC2)NC(=O)[C@H](CCN)NC1=O` [Example 2089] ({CH2CO}-[hArg]Y(Carboxymethyl)DWV[Bip]V[NMeA][dL][Dab][Cha]VSCK[AEEA][Aun]-OH; thioether N-14), with 12.3 nM; and `CC(C)C[C@@H]1NC(=O)[C@H](Cc2c[nH]c3ccccc23)NC(=O)[C@H](CC(=O)O)NC(=O)[C@H](Cc2ccc(C(=O)O)cc2)NC(=O)[C@H](Cc2ccc(OCC(=O)O)cc2)NC(=O)CSC[C@@H](C(=O)N[C@@H](CCN)C(=O)NCCCCCCCCCCC(=O)O)NC(=O)[C@H](CCC(N)=O)NC(=O)[C@H](C(C)C)NC(=O)[C@H](CC2CCCCC2)NC(=O)[C@H](CCN)NC(=O)[C@@H](CC(C)C)NC(=O)[C@H](C)N(C)C(=O)[C@H](C(C)C)NC(=O)[C@H](Cc2ccc(-c3ccccc3)cc2)NC1=O` [Example 1337] ({CH2CO}-Y(Carboxymethyl)[Phe(4-COOH)]DWL[Bip]V[NMeA][dL][Dab][Cha]VQC[Dab][Aun]-OH; thioether N-14), with 9.9 nM.
In the case of `Cc1cccc(C[C@@H]2NC(=O)[C@H](CC(=O)O)NC(=O)[C@H](Cc3ccc(OCC(=O)O)cc3)NC(=O)[C@H]([C@@H](C)O)NC(=O)CSC[C@@H](C(=O)N[C@@H](CCN)C(=O)NCCCCCCCCCCC(=O)O)NC(=O)[C@H]([C@@H](C)O)NC(=O)[C@H](C(C)C)NC(=O)[C@H](CC3CCCCC3)NC(=O)[C@H](CCN)NC(=O)[C@@H](CC(C)C)NC(=O)[C@H](C)N(C)C(=O)[C@H](Cc3ccc(OCC(=O)O)cc3)NC(=O)[C@H](Cc3ccc(-c4cc(F)cc(F)c4)cc3)NC(=O)[C@H](Cc3ccc(C(=O)O)cc3)NC2=O)c1` [Example 1234] ({CH2CO}-TY(Carboxymethyl)D[Phe(3-Me)][Phe(4-COOH)][X13]Y(Carboxymethyl)[NMeA][dL][Dab][Cha]VTC[Dab][Aun]-OH; thioether N-14), the IC50 is 31.6 nM.
Take `Cc1cccc(C[C@@H]2NC(=O)[C@H](CC(=O)O)NC(=O)[C@H](Cc3ccc(OCC(=O)O)cc3)NC(=O)[C@H](Cc3ccc(OCC(=O)O)cc3)NC(=O)CSC[C@@H](C(=O)NCCCCCCCCCCC(=O)O)NC(=O)[C@H](CCC(=O)O)NC(=O)[C@H](C(C)C)NC(=O)[C@H](CC3CCCCC3)NC(=O)[C@H](CCN)NC(=O)[C@@H](CC(C)C)NC(=O)[C@H](CCC(N)=O)N(C)C(=O)[C@H](Cc3ccc(O)cc3)NC(=O)[C@H](Cc3ccc(-c4ccccc4)cc3)NC(=O)[C@H](Cc3ccc(O)cc3)NC2=O)c1` [Example 2255] ({CH2CO}-Y(Carboxymethyl)Y(Carboxymethyl)D[Phe(3-Me)]Y[Bip]Y[NMeQ][dL][Dab][Cha]VEC[Aun]-OH; thioether N-14): the IC50 came to 63.1 nM.

Still in this experiment, the particulars now being: PE-labeled PD-L1-Ig 20 nM final, Jurkat-hPD-1 cells; read-out: Jurkat HPD1 PDL1 IC50.
With `CCCCCCCCCC[C@@H]1NC(=O)[C@H](C(C)C)NC(=O)[C@H](CC2CCCCC2)NC(=O)[C@H](CCN)NC(=O)[C@@H](CC(C)C)NC(=O)[C@H](C)N(C)C(=O)[C@H](Cc2ccc(OCC(=O)O)cc2)NC(=O)[C@H](Cc2ccc(-c3ccccc3)cc2)NC(=O)[C@H](Cc2ccc(OCC(=O)O)cc2)NC(=O)[C@H](Cc2cccc(C)c2)NC(=O)[C@H](CC(=O)O)NC(=O)[C@H](Cc2ccc(OCC(=O)O)cc2)NC(=O)[C@H]([C@@H](C)O)NC(=O)CSC[C@@H](C(=O)N[C@@H](CCN)C(=O)NCCOCCOCC(=O)NCCCCCCCCCCCC(=O)O)NC1=O` [Example 2673] ({CH2CO}-TY(Carboxymethyl)D[Phe(3-Me)]Y(Carboxymethyl)[Bip]Y(Carboxymethyl)[NMeA][dL][Dab][Cha]V[Gly(decyl)]C[Dab][AEEA][12Ado]-OH; thioether N-14), the IC50 is 90.3 nM.
`CC(=O)NCCCC[C@@H]1NC(=O)[C@H](C(C)(C)O)NC(=O)[C@H](CC2CCCCC2)NC(=O)[C@H](CCN)NC(=O)[C@@H](CC(C)C)NC(=O)[C@H](C)N(C)C(=O)[C@H](CCC(N)=O)NC(=O)[C@H](Cc2ccc(-c3ccccc3)cc2)NC(=O)[C@H](Cc2ccc(C(=O)O)cc2)NC(=O)[C@H](Cc2cccc(C(F)(F)F)c2)NC(=O)[C@H](CC(=O)O)NC(=O)[C@H](Cc2ccc(OCC(=O)O)cc2)NC(=O)[C@H](Cc2ccc(C(F)(F)F)cc2)NC(=O)CSC[C@@H](C(=O)N[C@@H](CCN)C(=O)NCCOCCOCC(=O)NCCOCCOCC(=O)NCCCCCCCCCCCCCCC(=O)O)NC1=O` [Example 2610] ({CH2CO}-[Phe(4-CF3)]Y(Carboxymethyl)D[Phe(3-CF3)][Phe(4-COOH)][Bip]Q[NMeA][dL][Dab][Cha][Val(3-OH)]K(Ac)C[Dab][AEEA][AEEA]-{NH(CH2)14COOH}; thioether N-14): the IC50 came out at 350 nM.
